Patent publication US7115741B2, “4-thieno[2,3-D]pyrimidin-4-YL piperazine compounds” (priority 2001, dated 2006)

Tested on: platelet ADP receptors
Test: ARB binding assay (platelet ADP receptor binding, [3H]2-MeS-ADP)
Parameters: species or system human
Conditions: relative activities of selected compounds in the ARB binding assay
Experimental: Utilizing the second assay the potency of inhibition of such compounds with respect to [^3H]2-MeS-ADP binding to whole platelets is determined. [^3H]2-MeS-ADP binding experiments are routinely performed with outdated human platelets collected by standard procedures at hospital blood banks. Apyrase-washed outdated platelets are prepared as follows (all steps at room temperature, if not indicated otherwise):
Outdated platelet suspensions are diluted with 1 volume of CGS and platelets pelleted by centrifugation at 1900×g for 45 minutes. Platelet pellets are resuspended at 3–6×10^9 platelets/ml in CGS containing 1 U/ml apyrase (grade V, Sigma, St. Louis, Mo.) and incubated for 15 minutes at 37° C. After centrifugation at 730×g for 20 minutes, pellets are resuspended in Hepes-Tyrode's buffer containing 0.1% BSA (Sigma, St. Louis, Mo.) at a concentration of 6.66×10^8 platelets/ml. Binding experiments are performed after >45 minutes resting of the platelets.
Alternatively, binding experiments are performed with fresh human platelets prepared as described in I.(Inhibition of ADP-Mediated Platelet Aggregation in vitro), except that platelets are resuspended in Hepes-Tyrode's buffer containing 0.1% BSA (Sigma, St. Louis, Mo.) at a concentration of 6.66×10^8 platelets/ml. Very similar results are obtained with fresh and outdated platelets.
A platelet ADP receptor binding assay using the tritiated potent agonist ligand [^3H]2-MeS-ADP (Jantzen, H. M. et al. (1999) Thromb. Hemost. 81:111–117) has been adapted to the 96-well microtiter format. In an assay volume of 0.2 ml Hepes-Tyrode's buffer with 0.1% BSA and 0.6% DMSO, 1×10^8 apyrase-washed platelets are preincubated in 96-well flat bottom microtiter plates for 5 minutes with serial dilutions of test compounds before addition of 1 nM [^3H]2-MeS-ADP ([^3H]2-methylthioadenosine-5′-diphosphate, ammonium salt; specific activity 48–49 Ci/mmole, obtained by custom synthesis from Amersham Life Science, Inc., Arlington Heights, Ill., or NEN Life Science Products, Boston, Mass.). Total binding is determined in the absence of test compounds. Samples for nonspecific binding may contain 10^−5 M unlabelled 2-MeS-ADP (RBI, Natick, Mass.). After incubation for 15 minutes at room temperature, unbound radioligand is separated by rapid filtration and two washes with cold (4–8° C.) Binding Wash Buffer (10 mM Hepes pH 7.4, 138 mM NaCl) using a 96-well cell harvester (Minidisc 96, Skatron Instruments, Sterling, Va.) and 8×12 GF/C glassfiber filtermats (Printed Filtermat A, for 1450 Microbeta, Wallac Inc., Gaithersburg, Md.). The platelet-bound radioactivity on the filtermats is determined in a scintillation counter (Microbeta 1450, Wallac Inc., Gaithersburg, Md.). Specific binding is determined by subtraction of non-specific binding from total binding, and specific binding in the presence of test compounds is expressed as % of specific binding in the absence of test compounds dilutions.

Row | Compound | Relative Activity
1 | CCc1cc2c(N3CCN(C(=O)Cc4ccccc4)CC3)ncnc2s1 [Example 2, 1-[4-(6-ethylthiopheno[3,2-e]pyrimidin-4-yl)piperazinyl]-2-phenylethan-1-one] | +++ (<10 micromolar)
2 | CCc1cc2c(N3CCN(C(=O)CC(F)(F)F)CC3)ncnc2s1 [Example 5, 1-[4-(6-ethylthiopheno[3,2-e]pyrimidin-4-yl)piperazinyl]-3,3,3-trifluoropropan-1-one] | +++ (<10 micromolar)
3 | CCc1cc2c(N3CCN(C(=O)CCC(C)C)CC3)ncnc2s1 [Example 17, 1-[4-(6-ethylthiopheno[3,2-e]pyrimidin-4-yl)piperazinyl]-4-methylpentan-1-one] | +++ (<10 micromolar)
4 | CCc1cc2c(N3CCN(C(=O)C(F)(F)F)CC3)ncnc2s1 [Example 55, 1-[4-(6-ethylthiopheno[3,2-e]pyrimidin-4-yl)piperazinyl]-2,2,2-trifluoroethan-1-one] | +++ (<10 micromolar)
5 | CCc1cc2c(N3CCN(C(=O)C=C(C(F)(F)F)C(F)(F)F)CC3)ncnc2s1 [Example 59, 1-[4-(6-ethylthopheno[3,2-e]pyrimidin-4-yl)pperazinyl]-4,4,4-trifluoro-3-(trifluoromethyl)but-2-en-1-one] | + (>20 micromolar)
6 | CCc1cc2c(N3CCN(C(=O)Cc4ccncc4)CC3)ncnc2s1 [Example 67, 1-[4-(6-ethylthiopheno[3,2-e]pyrimidin-4-yl)piperazinyl]-2-(4-pyridyl)ethan-1-one] | ++ (10–20 micromolar)
7 | CCc1cc2c(N3CCN(C(=O)C(c4ccccc4)c4ccccc4)CC3)ncnc2s1 [Example 70, 1-[4-(6-ethylthiopheno[3,2-e]pyrimidin-4-yl)piperazinyl]-2,2-diphenylethan-1-one] | + (>20 micromolar)
8 | CCc1cc2c(N3CCN(C(=O)c4ccc(-c5ccccc5)cc4)CC3)ncnc2s1 [Example 71, 4-(6-ethylthiopheno[3,2-e]pyrimidin-4-yl)piperazinyl 4-phenylphenyl ketone] | +++ (<10 micromolar)
9 | CC(C)(C)c1cc2c(N3CCN(C(=O)Cc4ccccc4)CC3)ncnc2s1 [Example 106, 1-{4-[6-(tert-butyl)thiopheno[3,2-e]pyrimidin-4-yl]piperazinyl}-2-phenylethan-1-one] | ++ (10–20 micromolar)
10 | O=C(CC(F)(F)F)N1CCN(c2ncnc3sc(-c4ccccc4)cc23)CC1 [Example 111, 3,3,3-trifluoro-1-[4-(6-phenylthiopheno[3,2-e]pyrimidin-4-yl)piperazinyl]propan-1-one] | ++ (10–20 micromolar)
11 | O=C(Cc1ccccc1)N1CCN(c2ncnc3sc(Cc4ccccc4)cc23)CC1 [Example 112, 2-phenyl-1-{4-[6-benzylthiopheno[3,2-e]pyrimidin-4-yl]piperazinyl} ethan-1-one] | +++ (<10 micromolar)
12 | O=C(Cc1ccccc1)N1CCN(c2ncnc3sc(Br)cc23)CC1 [Example 125, 1-[4-(6-bromothiopheno[3,2-e]pyrimidin-4-yl)piperazinyl]-2-phenylethan-1-one] | +++ (<10 micromolar)
13 | C#Cc1cc2c(N3CCN(C(=O)CC(F)(F)F)CC3)ncnc2s1 [Example 135, 1-[4-(6-ethlylylthiopheno[3,2-e]pyrimidin-4-yl)piperazinyl]-3,3,3-trifluoropropan-1-one] | +++ (<10 micromolar)
14 | CCc1cc2c(N3CCN(C(=O)Cc4ccccc4)CC3)nc(C)nc2s1 [Example 153, 1-[4-(6-ethyl-2-methylthiopheno[3,2-e]pyrimidin-4-yl)piperazinyl]-2-phenylethan-1-one] | +++ (<10 micromolar)
15 | CCc1cc2c(N3CCN(C(=O)Cc4ccccc4)CC3)nc(SC)nc2s1 [Example 169, 1-[4-(6-ethyl-2-methylthiothiopheno[3,2-e]pyrimidin-4-yl)piperazinyl]-2-phenylethan-1-one] | +++ (<10 micromolar)
16 | CCc1cc2c(N3CCN(C(=O)Cc4ccccc4)CC3)nc(O)nc2s1 [Example 183, 1-[4-(6-ethyl-2-hydroxythiopheno[3,2-e]pyrimidin-4-yl)piperazinyl]-2-phenylethan-1-one] | + (>20 micromolar)
17 | CCc1cc2c(N3CCCN(C(=O)CCCOn4nnc5ccccc54)CC3)ncnc2s1 [Example 188, 4-benzotriazolyloxy-1-[4-(6-ethylthiopheno[3,2-e]pyrimidin-4-yl)(1,4-diazaperhydroepinyl)]butan-1-one] | +++ (<10 micromolar)
18 | CCc1cc2c(N3CCN(C(=O)Cc4ccccc4)CC3C)ncnc2s1 (stereo not drawn) [Example 193, 1-[4-(6-ethylthiopheno[3,2-e]pyrimidin-4-yl)-3-methylpiperazinyl]-2-phenylethan-1-one] | +++ (<10 micromolar)
19 | CCc1cc2c(N3CCN(C(=O)Cc4ccccc4)C(C)C3)ncnc2s1 (stereo not drawn) [Example 197, 1-[4-(6-ethylthiopheno[3,2-e]pyrimidin-4-yl)-2-methylpiperazinyl]-2-phenylethan-1-one] | ++ (10–20 micromolar)
20 | CCc1cc2c(N3CCN(C(=O)Cc4ccccc4)CC3c3ccccc3)ncnc2s1 (stereo not drawn) [Example 206, 1-[4-(6-ethylthiopheno[3,2-e]pyrimidin-4-yl)-3-phenylpiperazinyl]-2-phenylethan-1-one] | + (>20 micromolar)
21 | CCOC(=O)c1nc(N2CCN(C(=O)Cc3ccccc3)CC2)c2cc(CC)sc2n1 [Example 236, 6-Ethyl-4-(4-phenylacetyl-piperazin-1-yl)-thieno[2,3-d]pyrimidine-2-carboxylic acid ethyl ester] | +++ (<10 micromolar)
22 | CCc1cc2c(N3CCN(C(=O)c4cccc(COn5nnc6ccccc65)c4)CC3)ncnc2s1 [Example 250, [3-(Benzotriazol-1-yloxymethyl)-phenyl]-[4-(6-ethyl-thieno[2,3-d]pyrimidin-4-yl)-piperazin-1-yl]-methanone] | ++ (10–20 micromolar)
23 | CCc1cc2c(N3CCN(C(=O)CN4CCCC(n5nnc6ccccc65)C4)CC3)ncnc2s1 (stereo not drawn) [Example 271, 2-(3-Benzotriazol-1-yl-piperidin-1-yl)-1-[4-(6-ethyl-thieno[2,3-d]pyrimidin-4-yl)-piperazin-1-yl]-ethanone] | ++ (10–20 micromolar)
24 | CCc1cc2c(N3CCN(C(=O)[C@@H]4CCC[C@H](Cn5nnc6ccccc65)C4)CC3)ncnc2s1 [Example 279, (3-Benzotriazol-1-ylmethyl-cyclohexyl)-[4-(6-ethyl-thieno[2,3-d]pyrimidin-4-yl)-piperazin-1-yl]-methanone] | +++ (<10 micromolar)
25 | CCc1cc2c(N3CCN(C(=O)CCCCOc4ccccc4)CC3)ncnc2s1 [Example 305, 1-[4-(6-Ethyl-thieno[2,3-d]pyrimidin-4-yl)-piperazin-1-yl]-5-phenoxy-pentan-1-one] | +++ (<10 micromolar)
26 | CCc1cc2c(N3CCN(C(=O)CCCCC4CCCCC4)CC3)ncnc2s1 [Example 311, 5-Cyclohexyl-1-[4-(6-ethyl-thieno[2,3-d]pyrimidin-4-yl)-piperazin-1-yl]-pentan-1-one] | + (>20 micromolar)
27 | CCc1cc2c(N3CCN(C(=O)CCCCNC(=O)c4ccccc4)CC3)ncnc2s1 [Example 313, N-{5-[4-(6-Ethyl-thieno[2,3-d]pyrimidin-4-yl)-piperazin-1-yl]-5-oxo-pentyl}-benzamide] | ++ (10–20 micromolar)
28 | CCc1cc2c(N3CCN(C(=O)/C=C/c4ccsc4)CC3)ncnc2s1 [Example 320, 1-[4-(6-Ethyl-thieno[2,3-d]pyrimidin-4-yl)-piperazin-1-yl]-3-thiophen-3-yl-propenone] | + (>20 micromolar)
29 | CCc1cc2c(N3CCN(C(=O)C#Cc4ccccc4)CC3)ncnc2s1 [Example 332, 1-[4-(6-Ethyl-thieno[2,3-d]pyrimidin-4-yl)-piperazin-1-yl]-3-phenyl-propynone] | ++ (10–20 micromolar)
30 | CCc1cc2c(N3CCN(C(=O)c4snnc4-c4ccccc4)CC3)ncnc2s1 [Example 348, [4-(6-Ethyl-thieno[2,3-d]pyrimidin-4-yl)-piperazin-1-yl]-(4-phenyl-[1,2,3]-thiadiazol-5-yl)-methanone] | + (>20 micromolar)
